Results from ChEMBL document CHEMBL1134403, “Structure-based approach for the discovery of bis-benzamidines as novel inhibitors of matriptase” (J Med Chem, 2001).

How the values were obtained:
Prothrombin = Prothrombin (Homo sapiens, UniProt P00734); assay: compound was tested for inhibitory activity against Thrombin
[1] = biological target: T1, Suppressor of tumorigenicity 14 protein (Homo sapiens, UniProt Q9Y5Y6); assay: compound was tested for inhibitory activity against Matriptase
T1 sequence (Q9Y5Y6 whole entry): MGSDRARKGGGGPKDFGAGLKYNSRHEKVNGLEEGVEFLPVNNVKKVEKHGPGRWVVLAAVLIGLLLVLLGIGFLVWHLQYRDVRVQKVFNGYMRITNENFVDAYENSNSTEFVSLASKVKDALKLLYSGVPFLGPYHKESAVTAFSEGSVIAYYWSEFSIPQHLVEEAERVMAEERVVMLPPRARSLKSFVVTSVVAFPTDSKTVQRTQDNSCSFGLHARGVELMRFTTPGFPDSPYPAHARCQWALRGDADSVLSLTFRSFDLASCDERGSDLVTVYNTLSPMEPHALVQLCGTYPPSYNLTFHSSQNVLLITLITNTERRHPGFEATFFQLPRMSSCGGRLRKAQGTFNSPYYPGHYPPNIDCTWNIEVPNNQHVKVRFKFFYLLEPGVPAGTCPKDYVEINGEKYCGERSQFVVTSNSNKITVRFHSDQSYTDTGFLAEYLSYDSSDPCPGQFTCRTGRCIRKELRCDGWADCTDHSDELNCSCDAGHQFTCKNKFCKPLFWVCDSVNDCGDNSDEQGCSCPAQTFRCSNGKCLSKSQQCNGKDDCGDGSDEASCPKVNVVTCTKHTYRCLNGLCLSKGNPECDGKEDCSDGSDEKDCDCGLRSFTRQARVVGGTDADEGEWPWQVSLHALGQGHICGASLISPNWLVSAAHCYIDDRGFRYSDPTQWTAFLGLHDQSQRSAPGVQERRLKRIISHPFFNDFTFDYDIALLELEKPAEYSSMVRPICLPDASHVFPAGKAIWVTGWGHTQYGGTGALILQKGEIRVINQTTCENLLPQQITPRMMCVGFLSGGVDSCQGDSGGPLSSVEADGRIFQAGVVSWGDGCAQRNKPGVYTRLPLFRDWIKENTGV

Structure (SMILES)	Ki (Prothrombin)	Ki [1]
N=C(N)c1ccc(Oc2ccc(Oc3ccc(C(=N)N)cc3)cc2)cc1	2670 nM	–
N=C(N)c1ccc(CCc2ccc(C(=N)N)cc2)cc1	–	> 10000 nM
N=C(N)c1ccc(OCCCOc2ccc(C(=N)N)cc2Br)c(Br)c1 [DIBROMPROPAMIDINE]	946 nM	–

The next lines start with the values.

Ki (Prothrombin)	Ki [1]	Structure (SMILES)
796 nM	–	N=C(N)c1ccc(OCCCCCCOc2ccc(C(=N)N)cc2I)cc1
224 nM	–	N=C(N)c1ccc(OCCCCCCOc2ccc(C(=N)N)cc2)cc1 [HEXAMIDINE]
